Some test systems named below: OVCAR-5 ovarian; MDA-MB-435; T-47D breast; SF-295 CNS; CCRF-CEM leukemia; HCT-116 colon; NCI/ADR-RES ovarian; MOLT-4 leukemia; HS 578T breast; HL-60(TB) leukemia.
What all share (assay): DTP human tumour cell line panel, 48 h

The structures appear in SMILES notation.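 The compound was tested at five concentrations on cells cultured in 96-well plates, with a 48-hour exposure period. Here, GI50 denotes the concentration required for 50% inhibition of growth. Definition used: TGI = concentration required for complete inhibition of growth.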

Turning to `CC(C)(C)c1ccc(S(=O)(=O)Oc2ccc3c4c(c(=O)oc3c2)CCCCC4)cc1`, the GI50 (usually the concentration giving 50% growth inhibition) in the test on OVCAR-5 ovarian is 37 µM; with MDA-MB-435, 34.6 µM; with T-47D breast, 5.17 µM; in the test with SF-295 CNS, 20.9 µM; with CCRF-CEM leukemia, greater than 100 µM; in the test with HCT-116 colon, 7.06 µM. The GI50 in the test with NCI/ADR-RES ovarian was 13.9 µM; with MOLT-4 leukemia, greater than 100 µM; in the test with HS 578T breast it was 15.2 µM. Further, the TGI in the test with OVCAR-5 ovarian, with MDA-MB-435, in the test on T-47D breast, with SF-295 CNS, in the test with CCRF-CEM leukemia and with HCT-116 colon was greater than 100 µM each time. Also, the TGI (as a rule, the concentration at which net growth stops) in the test on NCI/ADR-RES ovarian is greater than 100 µM; in the test on MOLT-4 leukemia it was greater than 100 µM; with HS 578T breast, 74.3 µM.
`COc1ccc(/C=C/C(=O)c2cc(OC)c(OC)c(OC)c2)cc1OCC(=O)Nc1nc2ccc(OC(F)(F)F)cc2s1`: the GI50 in the test with OVCAR-5 ovarian was 4.76 µM; in the test on MDA-MB-435, 0.3 µM; in the test on T-47D breast, 3.08 µM; in the test with SF-295 CNS it was 2.21 µM; in the test with CCRF-CEM leukemia it was 2.5 µM; in the test on HCT-116 colon, 1.43 µM. Besides, the GI50 is 0.492 µM in the test on NCI/ADR-RES ovarian, 2.89 µM with MOLT-4 leukemia and 3.08 µM in the test on HS 578T breast. The TGI with OVCAR-5 ovarian was 31.2 µM; in the test with MDA-MB-435, 1.08 µM; in the test on T-47D breast it was 10.9 µM; in the test on SF-295 CNS, 6.09 µM; in the test on CCRF-CEM leukemia, greater than 100 µM; in the test with HCT-116 colon, 3.15 µM. For the same compound, the figures for the TGI in the test with NCI/ADR-RES ovarian, in the test with MOLT-4 leukemia and in the test on HS 578T breast were 2.31 µM, greater than 100 µM and greater than 100 µM, respectively.
Turning to `CCOC(=O)c1cc(C(=O)c2cc(OC)c(OC)c(OC)c2)n2ncccc12`, the GI50 was 2.72 µM in the test on OVCAR-5 ovarian; 0.0314 µM in the test on MDA-MB-435; 0.219 µM in the test with SF-295 CNS; 0.297 µM with CCRF-CEM leukemia; 0.276 µM with HCT-116 colon; 0.251 µM in the test on HL-60(TB) leukemia. Further, the GI50 is 0.237 µM in the test on NCI/ADR-RES ovarian, 0.575 µM with MOLT-4 leukemia and 0.309 µM with HS 578T breast. Also, the TGI in the test on OVCAR-5 ovarian was greater than 100 µM; in the test with MDA-MB-435, 0.117 µM; with SF-295 CNS, 13.9 µM; in the test on CCRF-CEM leukemia it was greater than 100 µM; with HCT-116 colon, greater than 100 µM; in the test with HL-60(TB) leukemia, 0.763 µM. Further, the results for the TGI with NCI/ADR-RES ovarian, in the test with MOLT-4 leukemia and with HS 578T breast were greater than 42.9 µM, greater than 100 µM and 26.1 µM, respectively.
With `CCOC(=O)c1ccc(NC(=O)Nc2nncs2)cc1`, the GI50 was 0.78 µM with OVCAR-5 ovarian; 0.584 µM in the test with T-47D breast; 0.262 µM with SF-295 CNS; 0.23 µM in the test on CCRF-CEM leukemia; 0.109 µM in the test on HCT-116 colon; 0.106 µM with HL-60(TB) leukemia. The GI50 with NCI/ADR-RES ovarian is 0.229 µM; in the test on MOLT-4 leukemia, 0.384 µM; in the test on HS 578T breast, 0.297 µM. The TGI with OVCAR-5 ovarian is greater than 100 µM; in the test with T-47D breast, 34.4 µM; with SF-295 CNS, 0.988 µM; with CCRF-CEM leukemia, greater than 52.7 µM; with HCT-116 colon, 11.8 µM; in the test with HL-60(TB) leukemia, 6.7 µM. Moreover, the results for the TGI in the test with NCI/ADR-RES ovarian, with MOLT-4 leukemia and in the test with HS 578T breast were 10.6 µM, greater than 48.7 µM and 47.4 µM, respectively.
Consider `CCOC(=O)C1Cc2c(cc3c4c(cccc24)N(C(C)=O)C3)N(C)C1` (stereo not given), for which the TGI was greater than 100 µM with OVCAR-5 ovarian; 7.04 µM in the test with MDA-MB-435; greater than 100 µM in the test on T-47D breast; greater than 100 µM in the test on SF-295 CNS; greater than 100 µM in the test on CCRF-CEM leukemia; greater than 100 µM with HCT-116 colon. In addition, the TGI in the test on HL-60(TB) leukemia is greater than 100 µM; in the test with MOLT-4 leukemia it was greater than 100 µM; in the test with HS 578T breast, 9.07 µM.
For `Cc1nc2ccc(Nc3nc(Cl)nc(N4CCOCC4)n3)cc2n1Cc1ccccc1`, the GI50 is greater than 100 µM with OVCAR-5 ovarian; 8.23 µM in the test on MDA-MB-435; 3.27 µM in the test on T-47D breast; 11.9 µM with SF-295 CNS; 2.93 µM in the test with CCRF-CEM leukemia; 5.16 µM with HCT-116 colon. For the same compound, the GI50 is 4.43 µM in the test with NCI/ADR-RES ovarian and 4.67 µM with HS 578T breast. In addition, the TGI was greater than 100 µM with OVCAR-5 ovarian; greater than 100 µM with MDA-MB-435; greater than 100 µM with T-47D breast; 82 µM in the test on SF-295 CNS; greater than 100 µM with CCRF-CEM leukemia; 89 µM in the test with HCT-116 colon. For the same compound, the TGI in the test with NCI/ADR-RES ovarian and with HS 578T breast was greater than 100 µM each time.
As for `c1cc(NNc2cccc(-c3nn[nH]n3)c2)cc(-c2nn[nH]n2)c1`, the TGI in the test on OVCAR-5 ovarian, in the test on MDA-MB-435, with T-47D breast, in the test on SF-295 CNS, in the test with HCT-116 colon and with NCI/ADR-RES ovarian was greater than 100 µM in each case. Moreover, in the test on HS 578T breast, the TGI was greater than 100 µM.
For the compound `COc1cc(C2Cc3ncccc3-c3[nH]c(=O)c4cccnc4c32)cc(OC)c1OC` (stereo not given), the GI50 in the test on OVCAR-5 ovarian was 4.82 µM; with MDA-MB-435, 0.0554 µM; with SF-295 CNS, 0.274 µM; in the test on CCRF-CEM leukemia it was 0.467 µM; with HCT-116 colon, 0.456 µM; in the test with HL-60(TB) leukemia it was 0.251 µM. Besides, the GI50 in the test on NCI/ADR-RES ovarian is 2.16 µM; with MOLT-4 leukemia, 0.535 µM; with HS 578T breast it was 0.613 µM. The TGI was greater than 100 µM in the test on OVCAR-5 ovarian; 0.428 µM with MDA-MB-435; greater than 100 µM in the test on SF-295 CNS; greater than 100 µM in the test with CCRF-CEM leukemia; greater than 100 µM with HCT-116 colon; 2.95 µM in the test on HL-60(TB) leukemia. Also, the TGI in the test with NCI/ADR-RES ovarian, in the test with MOLT-4 leukemia and with HS 578T breast was greater than 100 µM in each case.
`O=S(=O)(NCCCNc1nccc(-c2c(-c3ccc(O)cc3)nc3sccn23)n1)c1ccc(F)cc1`: the GI50 was 5.58 µM in the test on OVCAR-5 ovarian; 0.245 µM in the test on MDA-MB-435; 1.39 µM with T-47D breast; 1.99 µM in the test with SF-295 CNS; 1.25 µM with HCT-116 colon; 2.61 µM in the test with HL-60(TB) leukemia. The GI50 in the test on NCI/ADR-RES ovarian was 4.59 µM; in the test on MOLT-4 leukemia, 2.47 µM; in the test with HS 578T breast, 2.8 µM. Further, the TGI in the test on OVCAR-5 ovarian was greater than 100 µM; in the test with MDA-MB-435 it was 4.76 µM; with T-47D breast, 3.55 µM; with SF-295 CNS, 4.56 µM; in the test with HCT-116 colon, 4.77 µM; in the test on HL-60(TB) leukemia, 5.61 µM. Further, the TGI is greater than 100 µM with NCI/ADR-RES ovarian, 8.81 µM in the test with MOLT-4 leukemia and 6.99 µM in the test with HS 578T breast.

The values are drawn from PubChem BioAssay (NCI).
